Literature values, collected in patent US5900412A, “Percutaneous/transdermal delivery of ASA and antithrombotic therapies based thereon” (Luitpold Pharma GmbH, priority 1996, dated 1999).

## CC(=O)Oc1ccccc1C(=O)O [ASA, acetylsalicylic acid]
cyclooxygenase
  acetylation and inactivation of cyclooxygenase (in words): irreversible acetylation, and consequently prolonged inactivation, of cyclooxygenase
cyclooxygenase; blood platelets
  duration of inhibition of thromboxane synthesis (life of the thrombocytes): 1 month
Following peroral administration
  absolute bio-availability of ASA: 50%-70
Gastrointestinal fluids, absorption in stomach and intestine, blood plasma
  metabolism of ASA to SA (in words): rapidly metabolized to its principal metabolite SA
